Measurements as given in PubChem BioAssay AID1963845 (Molecular Pharmacology Branch, DTP, NCI, 2024).

Tested on: 429239-143-T-J1-PDC complex spheroid viability
Test: Anticancer human tumor 429239-143-T-J1-PDC patient-derived small cell lung carcinoma cell line growth inhibition [POLQ]
Conditions: for IC50: curve of first compound; for viability, T/C: stronger effect = lower value
How it was run: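 PDC + HUVEC + MSC complex spheroids; POLQ inhibitors ± partner drugs; top conc. at/near clinical Cmax, else 10 microM (SN-38 1 microM), half-log dilutions; 37 degrees C, 5% CO2.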

[1] = second compound 0.0316 µM, first compound 0.0316 µM
[2] = second compound 0.0316 µM, first compound 0.1 µM
[3] = second compound 0.0316 µM, first compound 0.316 µM
[4] = second compound 0.0316 µM, first compound 1 µM
[5] = second compound 0.0316 µM, first compound 3.16 µM
[6] = second compound 0.0316 µM, first compound 10 µM
[7] = second compound 0.1 µM, first compound 0.0316 µM
[8] = second compound 0.1 µM, first compound 0.1 µM
[9] = second compound 0.1 µM, first compound 0.316 µM
[10] = second compound 0.1 µM, first compound 1 µM
[11] = second compound 0.1 µM, first compound 3.16 µM
[12] = second compound 0.1 µM, first compound 10 µM
[13] = second compound 0.316 µM, first compound 0.0316 µM
[14] = second compound 0.316 µM, first compound 0.1 µM
[15] = second compound 0.316 µM, first compound 0.316 µM
[16] = second compound 0.316 µM, first compound 1 µM
[17] = second compound 0.316 µM, first compound 3.16 µM
[18] = second compound 0.316 µM, first compound 10 µM
[19] = second compound 1 µM, first compound 0.0316 µM
[20] = second compound 1 µM, first compound 0.1 µM
[21] = second compound 1 µM, first compound 0.316 µM
[22] = second compound 1 µM, first compound 1 µM
[23] = second compound 1 µM, first compound 3.16 µM
[24] = second compound 1 µM, first compound 10 µM
[25] = second compound 3.16 µM, first compound 0.0316 µM
[26] = second compound 3.16 µM, first compound 0.1 µM
[27] = second compound 3.16 µM, first compound 0.316 µM
[28] = second compound 3.16 µM, first compound 1 µM
[29] = second compound 3.16 µM, first compound 3.16 µM
[30] = second compound 3.16 µM, first compound 10 µM
[31] = second compound 10 µM, first compound 0.0316 µM
[32] = second compound 10 µM, first compound 0.1 µM
[33] = second compound 10 µM, first compound 0.316 µM
[34] = second compound 10 µM, first compound 1 µM
[35] = second compound 10 µM, first compound 3.16 µM
[36] = second compound 10 µM, first compound 10 µM
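Also: luminescence signal used as surrogate measure of viable cells; spheroids exposed to compounds for seven days before readout.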
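For viability, T/C in this document: 100% = DMSO vehicle control viability as luminescence relative to vehicle.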

CC(=O)O[C@H]1C(=O)[C@@]2(C)[C@H]([C@H](OC(=O)c3ccccc3)[C@]3(O)C[C@H](OC(=O)[C@H](O)[C@@H](NC(=O)c4ccccc4)c4ccccc4)C(C)=C1C3(C)C)[C@]1(OC(C)=O)CO[C@@H]1C[C@@H]2O + Nc1ccc(C#CCN(C(=O)Cc2ncc(C(F)(F)F)cc2C(F)(F)F)c2ccc(F)cc2)nn1
IC50 (second compound 0.0316 µM): 14.4 nM
IC50 (second compound 0.1 µM): 14.4 nM
IC50 (second compound 0.316 µM): 14 nM
IC50 (second compound 1 µM): 15.3 nM
IC50 (second compound 3.16 µM): 14.2 nM
IC50 (second compound 10 µM): 13.2 nM
viability, T/C (second compound 0.0316 µM, first compound 0.00949 µM): 65.6%
viability, T/C (second compound 0.0316 µM, first compound 0.03 µM): 20.2%
viability, T/C (second compound 0.0316 µM, first compound 0.0949 µM): 16%
viability, T/C (second compound 0.0316 µM, first compound 0.3 µM): 16.2%
viability, T/C (second compound 0.0316 µM, first compound 0.949 µM): 26.6%
viability, T/C (second compound 0.0316 µM, first compound 3 µM): 32.6%
viability, T/C (second compound 0.1 µM, first compound 0.00949 µM): 67%
viability, T/C (second compound 0.1 µM, first compound 0.03 µM): 18.6%
viability, T/C (second compound 0.1 µM, first compound 0.0949 µM): 15.9%
viability, T/C (second compound 0.1 µM, first compound 0.3 µM): 17.1%
viability, T/C (second compound 0.1 µM, first compound 0.949 µM): 22.2%
viability, T/C (second compound 0.1 µM, first compound 3 µM): 24.6%
viability, T/C (second compound 0.316 µM, first compound 0.00949 µM): 64.2%
viability, T/C (second compound 0.316 µM, first compound 0.03 µM): 22.6%
viability, T/C (second compound 0.316 µM, first compound 0.0949 µM): 16%
viability, T/C (second compound 0.316 µM, first compound 0.3 µM): 17.1%
viability, T/C (second compound 0.316 µM, first compound 0.949 µM): 19.8%
viability, T/C (second compound 0.316 µM, first compound 3 µM): 26.2%
viability, T/C (second compound 1 µM, first compound 0.00949 µM): 71%
viability, T/C (second compound 1 µM, first compound 0.03 µM): 18.2%
viability, T/C (second compound 1 µM, first compound 0.0949 µM): 14.8%
viability, T/C (second compound 1 µM, first compound 0.3 µM): 17.5%
viability, T/C (second compound 1 µM, first compound 0.949 µM): 25.2%
viability, T/C (second compound 1 µM, first compound 3 µM): 24%
viability, T/C (second compound 3.16 µM, first compound 0.00949 µM): 67%
viability, T/C (second compound 3.16 µM, first compound 0.03 µM): 16.2%
viability, T/C (second compound 3.16 µM, first compound 0.0949 µM): 15.4%
viability, T/C (second compound 3.16 µM, first compound 0.3 µM): 15.9%
viability, T/C (second compound 3.16 µM, first compound 0.949 µM): 18.5%
viability, T/C (second compound 3.16 µM, first compound 3 µM): 26.7%
viability, T/C (second compound 10 µM, first compound 0.00949 µM): 64.3%
viability, T/C (second compound 10 µM, first compound 0.03 µM): 14.5%
viability, T/C (second compound 10 µM, first compound 0.0949 µM): 13.4%
viability, T/C (second compound 10 µM, first compound 0.3 µM): 14.3%
viability, T/C (second compound 10 µM, first compound 0.949 µM): 15.9%
viability, T/C (second compound 10 µM, first compound 3 µM): 18.5%

CC1COCCN1c1cc(C2(O)CC3CCC(C2)O3)c2cnn(-c3ccn[nH]3)c2n1 (stereo unspecified) + Cc1cccc(N(C)C(=O)C2C(O)CCN2c2nc(C)cc(C(F)(F)F)c2C#N)c1
IC50 (second compound 0.0316 µM): 67.2 nM
IC50 (second compound 0.1 µM): 66.8 nM
IC50 (second compound 0.316 µM): 61.7 nM
IC50 (second compound 1 µM): 71 nM
IC50 (second compound 3.16 µM): 47.8 nM
IC50 (second compound 10 µM): 63 nM
viability, T/C [1]: 76.8%
viability, T/C [2]: 35.8%
viability, T/C [3]: 17.6%
viability, T/C [4]: 10.3%
viability, T/C [5]: 7.41%
viability, T/C [6]: 5.4%
viability, T/C [7]: 69.6%
viability, T/C [8]: 39.6%
viability, T/C [9]: 19.3%
viability, T/C [10]: 11.8%
viability, T/C [11]: 7.54%
viability, T/C [12]: 5.93%
viability, T/C [13]: 62.1%
viability, T/C [14]: 41.3%
viability, T/C [15]: 16.2%
viability, T/C [16]: 9.23%
viability, T/C [17]: 9.02%
viability, T/C [18]: 5.86%
viability, T/C [19]: 73.8%
viability, T/C [20]: 40%
viability, T/C [21]: 17.7%
viability, T/C [22]: 9.58%
viability, T/C [23]: 8.48%
viability, T/C [24]: 5.82%
viability, T/C [25]: 60.1%
viability, T/C [26]: 31.8%
viability, T/C [27]: 17.9%
viability, T/C [28]: 10.3%
viability, T/C [29]: 8.26%
viability, T/C [30]: 6.08%
viability, T/C [31]: 63%
viability, T/C [32]: 41.5%
viability, T/C [33]: 18.5%
viability, T/C [34]: 10.8%
viability, T/C [35]: 9.19%
viability, T/C [36]: 5.28%

C#Cc1c(F)ccc2cc(O)cc(-c3ncc4c(N5CC6CCC(C5)N6)nc(OCC56CCCN5CC(F)C6)nc4c3F)c12 (stereo unspecified) + COC1C(OC(N)=O)C(O)C(Oc2ccc3c(O)c(NC(=O)c4ccc(O)c(CC=C(C)C)c4)c(=O)oc3c2C)OC1(C)C
IC50 (second compound 0.0316 µM): > 10000 nM
IC50 (second compound 0.1 µM): > 10000 nM
IC50 (second compound 0.316 µM): > 10000 nM
IC50 (second compound 1 µM): > 10000 nM
IC50 (second compound 3.16 µM): > 10000 nM
IC50 (second compound 10 µM): > 10000 nM
viability, T/C [1]: 109%
viability, T/C [2]: 92.7%
viability, T/C [3]: 113%
viability, T/C [4]: 92.9%
viability, T/C [5]: 99.9%
viability, T/C [6]: 92.9%
viability, T/C [7]: 104%
viability, T/C [8]: 113%
viability, T/C [9]: 103%
viability, T/C [10]: 97.7%
viability, T/C [11]: 93.2%
viability, T/C [12]: 91.1%
viability, T/C [13]: 104%
viability, T/C [14]: 95.3%
viability, T/C [15]: 99.2%
viability, T/C [16]: 98.8%
viability, T/C [17]: 95.2%
viability, T/C [18]: 106%
viability, T/C [19]: 94.7%
viability, T/C [20]: 106%
viability, T/C [21]: 96%
viability, T/C [22]: 105%
viability, T/C [23]: 98.8%
viability, T/C [24]: 97.4%
viability, T/C [25]: 103%
viability, T/C [26]: 101%
viability, T/C [27]: 102%
viability, T/C [28]: 92.9%
viability, T/C [29]: 114%
viability, T/C [30]: 98.2%
viability, T/C [31]: 101%
viability, T/C [32]: 98.7%
viability, T/C [33]: 91.5%
viability, T/C [34]: 92.5%
viability, T/C [35]: 106%
viability, T/C [36]: 102%
